1 compound from PMC6680637, “In Silico Repositioning of Cannabigerol as a Novel Inhibitor of the Enoyl Acyl Carrier Protein (ACP) Reductase (InhA)” (Molecules, 2019) can be followed below.

The target of the experiment is T1, Enoyl acyl carrier protein (ACP) reductase (InhA) (Mycobacterium tuberculosis, UniProt P9WGR1).
T1 construct: wild type InhA
Nature of the experiment: enzyme kinetic assay, NADH oxidation at […] nm with trans-2-dodecenoyl-CoA substrate. It counts as biochemical.

The structures appear in SMILES notation.

T1 sequence (P9WGR1 whole entry, looked up): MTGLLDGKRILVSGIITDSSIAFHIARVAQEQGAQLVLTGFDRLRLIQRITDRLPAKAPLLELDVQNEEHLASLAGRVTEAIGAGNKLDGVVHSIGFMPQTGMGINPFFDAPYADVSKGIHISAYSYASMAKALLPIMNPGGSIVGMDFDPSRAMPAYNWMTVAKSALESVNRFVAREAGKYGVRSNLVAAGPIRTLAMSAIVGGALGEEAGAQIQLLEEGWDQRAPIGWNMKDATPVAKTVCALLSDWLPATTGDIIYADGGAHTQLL

`CCCCCc1cc(O)c(C/C=C(\C)CCC=C(C)C)c(O)c1` [CBG, Cannabigerol] displayed an IC50 of 5.2 ± 0.1 µM.

A word on the IC50: it is the concentration needed to halve the response being measured. A high value points to weaker potency in that assay.
